Experimental data from US10533018B2, “Antimicrobial prochelators to target drug-resistant bacteria and methods of making and using the same” (Duke University, priority 2015, dated 2020).
Read-outs that look alike come from different tables or passages of the source.

How the values were obtained:
[1] = Calcein fluorescence assay for Cu competition; format: physicochemical
Description: FIG. 11: To solutions of 2 μM calcein in pH 7.4 PBS was added 2.4 μM CuCl2 and the samples were fully equilibrated at room temperature for 2 hours. Next, 20 μM TAT, 20 μM DB4-162, 0.1 units/mL β-lactamase were added and the fluorescence at 500 nm was recorded after one hour.
A calcein fluorescence assay for metal competition was utilized in order to evaluate the relative metal-binding affinity of DB4-51 compared to PT. The fluorescence intensity of the probe calcein is quenched by more than 90% upon binding Cu^2+. […] However, when incubated with 10 equivalents of DB4-51 and 0.1 units/mL Type III β-lactamase from Enterobacter cloacae, there is an 85% return in calcein fluorescence, which correlates well with the 90% return observed for PT itself at the same concentration.
FIG. 4: Relative Cu binding assay with DB4-51 and PT against calcein. Solutions of 2 μM calcein and 2.4 μM CuCl2 in pH 7.4 PBS were equilibrated at room temperature for 2 hours prior to addition of 20 μM PT, 20 μM DB4-51, and/or 0.1 units/mL β-lactamase (Bla).
The calcein assay was utilized in order to assess the relative copper chelating ability of the prochelator and TAT. The fluorescence emission of calcein is quenched by more than 90% in the presence of 1.2 equivalents of CuCl2 (FIG. 11). […] The addition of 0.1 units/mL β-lactamase alone has no effect on the quenched fluorescence signal of the Cu-calcein solution. […] However, when incubated with 10 equivalents of DB4-162 and 0.1 units/mL β-lactamase there is a 90% return in calcein fluorescence. […] While it is unclear why 10 equivalents of TAT are insufficient to out-compete calcein for copper, it may be related to the propensity of TAT to form other species in aqueous media.

[2] = test system: ESBL E. coli; experiment: microbe, parasite or virus in culture; format: cell-based, Escherichia coli; details: for IC50: ESBL E. coli
Description: (§1) Bacterial culture reagents including LB broth (Lennox), agar-agar, ampicillin, and ceftriaxone were purchased from Sigma Aldrich Corp. The Escherichia coli (E. coli) K12 strain HB101 and pGLO E. coli transformation kit purchased from Bio-Rad Laboratories Inc. HB101 was transformed with the bla gene via the pGLO plasmid. The bla gene encodes for a TEM-1 β-lactamase that imparts penicillin resistance to the mutant E. coli K-12 strain (+Bla). Strains E. coli UTI89, [27] pCOM-GFP-transformed E. coli UTI89 (pCOM-GFP), [28] and Methicillin-Resistant Staphylococcus aureus (MRSA) clone USA300 [29] have been previously described. The Extended-Spectrum β-Lactamase (ESBL) E. coli, Klebsiella pneumonia (Klebs), and Pseudomonas aeruginosa (Pseudo) strains were clinical isolates acquired deidentified from Duke Hospital and tested for antibiotic susceptibility in the Clinical Microbiology Laboratory using standard clinical susceptibility methods.
(§2) Cultures were incubated on LB (Lennox, Sigma) agar at 37° C. in ambient atmospheric composition. Before beginning an experiment, a single bacterial colony grown on LB agar was resuspended in 2 mL LB broth and incubated overnight to form a turbid cell suspension. The overnight culture was diluted 1:100 in LB and used immediately as the working culture. To assess the antibacterial activity of compounds, the working bacterial culture was aliquoted in a clear, flat-bottomed, 96-well polystyrene plate (Costar) and the compound of interest was added in 2-fold serial dilution from 500 to 1 μM. Plates were covered with a breathable sealing film (Aeroseal, Genesee Scientific) and incubated at 37° C. in ambient atmospheric composition with shaking at 200 rpm. Optical density at 600 nm was recorded after 4 h and 20 h for each well using a standard OD600 protocol with LB serving as the blank. The resulting dose-response curves were fit to a nonlinear regression in GraphPad Prism Version 6 to calculate the IC50 of DB4-51 in each strain.
(§3) The ability of DB4-162 to inhibit bacterial growth was assessed by a traditional broth microdilution method that assesses the turbidity of liquid cultures in the presence of varying concentrations of the compound. As described above for DB4-51, the antibacterial properties of the prochelator DB4-162 were assessed in non-pathogenic lab-strain HB101K-12 E. coli and compared to the pGLO-transfected mutant HB101K-12 E. coli that express β-lactamase. Clinically relevant pathogenic bacteria were also screened, including UTI89 E. coli, pCOM transfected UTI89 E. coli (pCOM), extended spectrum β-lactamase (ESBL) E. coli, methicillin-resistant Staphylococcus aureus (MRSA), and Klebsiella pneumonia (Klebs). In addition to being naturally resistant to many β-lactam antibiotics, MRSA can produce a number of β-lactamases. […] It should be noted that all of the bacteria tested are gram-negative except for gram-positive MRSA.
(§4) The goal of this screen was to calculate the IC50 of the prochelator in a series of pathogenic bacteria and compare these values to the IC50 of known antibiotics in those same strains to determine the relative effectiveness of DB4-162 against the drug-resistant and drug-susceptible bacteria in comparison to current antibiotic treatment options. Bacterial growth was monitored in LB broth at 37° C. in the presence and absence of DB4-162 for 20 hours. A concentration gradient of DB4-162 from 500 to 0 μM was used to screen all 7 strains of bacteria and the dose-response curves were fit to a […] to calculate the IC50 of DB4-162 in each strain. These IC50 values are an approximation of how effectively DB4-162 inhibits the growth of each bacterial strain in vitro.
(§5) IC50 values for ampicillin were calculated via broth microdilution in LB broth only. Values are listed as the mean followed by the 95% confidence interval about the mean. Mean and confidence intervals were calculated from a variable slope, nonlinear regression fit to the dose-response OD600 data. […]

[3] = test system: −Bla K-12 E. coli; experiment: microbe, parasite or virus in culture; format: cell-based, Escherichia coli; details: −Bla K-12 E. coli
Description: as §1, §2, §3, §4, §5

[4] = test system: clinical isolates of Klebsiella pneumonia (Klebs); experiment: Broth microdilution in Klebs clinical isolates; format: cell-based; details: Klebsiella pneumoniae, LB broth
Description: as §1, §2

[5] = test system: UTI89 E. coli; experiment: Broth microdilution growth inhibition (OD600); format: cell-based, Escherichia coli; details: UTI89 E. coli
Description: as §1, §2, §3, §4, §5

[6] = 2 μM calcein + 2.4 μM CuCl2, pH 7.4 PBS, 20 μM (10 equivalents) compound alone, 1 h
[7] = as above, 10 equivalents compound + 0.1 units/mL β-lactamase
[8] = Escherichia coli, LB + 500 μM BCS
[9] = Escherichia coli, LB + 10 μM CuCl2, read-out: IC50
[10] = Escherichia coli, LB + 500 μM BCS, read-out: IC50
[11] = Escherichia coli, LB + 10 μM CuCl2

SMILES | return in calcein fluorescence [1, 6] | return in calcein fluorescence [1, 7] [%] | IC50 [2, 8] [µM] | IC50 [3, 9] [µM] | IC50 [3, 10] [µM] | IC50 ([4]; Klebs Isolate 1) [µM] | IC50 ([4]; Klebs Isolate 2) [µM] | IC50 ([4]; Klebs Isolate 3) [µM] | IC50 ([4]; Klebs Isolate 4) [µM] | IC50 ([4]; Klebs Isolate 5) [µM] | IC50 ([4]; Klebs Isolate 6) [µM] | IC50 ([4]; Klebs Isolate 7) [µM] | IC50 ([4]; Klebs Isolate 8) [µM] | IC50 ([4]; Klebs Isolate 9) [µM] | IC50 ([4]; Klebs Isolate 10) [µM] | IC50 ([4]; Klebs Isolate 11) [µM] | IC50 ([4]; Klebs Isolate 12) [µM] | IC50 ([4]; Klebs Isolate 13) [µM] | IC50 [5, 11] [µM] | IC50 [5, 8] [µM] | further results
O=C(Cc1ccccc1)N[C@@H]1C(=O)N2C(C(=O)O)=C(CSc3cccc[n+]3[O-])CS[C@H]12 [DB4-51, 2-((((6R,7R)-2-carboxy-8-oxo-7-(2-phenylacetamido)-5-thia-1-azabicyclo[4.2.0]oct-2-en-3-yl)methyl)thio)pyridine 1-oxide] | does not compete with calcein for Cu binding | 85 | 0.017 | 0.015 | 0.038 | 25 | 45 | 163 | 133 | 49 | 47 | 9 | 30 | 10 | 150 | 34 | 52 | > 500 | 0.021 | 0.017 | IC50 ([3]; Escherichia coli, pre-incubated with β-lactamase, read-out: IC50 after pre-incubation with β-lactamase): 9 µM
[O-][n+]1ccccc1S [PT, 2-mercaptopyridine N-oxide] | 90% |  |  |  |  | 10 | 5 | 21 | 9 | 11 | 6 | 10 | 10 | 9 | 5 | 6.5 | 8 | 11 | 0.004 | 0.006 | IC50 ([2]; Escherichia coli, LB broth): 0.005 µM; IC50 ([5]; Escherichia coli, LB broth): 0.002 µM
Cc1csc(=S)n1OCC1=C(C(=O)O)N2C(=O)[C@@H](NC(=O)Cc3ccccc3)[C@H]2SC1 [DB4-162, (6R,7R)-3-(((4-methyl-2-thioxothiazol-3(2H)-yl)oxy)methyl)-8-oxo-7-(2-phenylacetamido)-5-thia-1-azabicyclo[4.2.0]oct-2-ene-2-carboxylic acid] | approximately 50% | 90 | 50 | 39 | 54 |  |  |  |  |  |  |  |  |  |  |  |  |  | 97 | 77 | IC50 [2, 11]: 21 µM; IC50 ([2]; Escherichia coli, LB broth): 22 µM; IC50 in ESBL E. coli lower than in −Bla K-12 E. coli ([2]; LB broth): 90%; IC50 ([3]; Escherichia coli, LB broth, read-out: IC50): 227 µM; IC50 ([5]; Escherichia coli, LB broth): 93 µM
CC1(C)S[C@@H]2[C@H](NC(=O)[C@H](N)c3ccccc3)C(=O)N2[C@H]1C(=O)O [Ampicillin] |  |  |  |  |  | 142 | > 500 | 55 | > 500 | 175 | 118 | > 500 | > 500 | > 500 | > 500 | 251 | 112 | > 500 |  |  | IC50 ([2]; LB broth): > 250 µM; IC50 ([3]; LB broth, listed as ampicillin, read-out: IC50): 8 µM; IC50 ([3]; LB broth, read-out: IC50): 0.008 µM; IC50 ([5]; LB broth): 0.003 µM; IC50 ([5]; LB broth, listed as ampicillin): 3 µM
